In patent publication US5668295A, “Protein involved in nicotine synthesis, DNA encoding, and use of sense and antisense DNAs corresponding thereto to affect nicotine content in transgenic tobacco cells and plants” (Philip Morris Incorporated, priority 1995, dated 1997):

Key:
[1] = tested on: putrescine N-methyltransferase ("PMT") / highly purified tobacco protein; assay: Substrate specificity test: analogs substituted for putrescine in the standard PMT assay; format: biochemical, Nicotiana tabacum L. var. Burley 21; settings: for radioactive product formed when substituted for putrescine: standard PMT assay, 30° C., 30 minutes
Experimental: (§1) The reaction was started by addition of the enzyme sample, and it was carried out at 30° C. for 30 minutes. The reaction was stopped by addition of 0.5 ml of 10% (w/v) NaOH saturated with NaCl.
(§2) The radioactive product, N-[^14 C-methyl]putrescine, was separated from the substrate by solvent extraction into chloroform. After vortexing the stopped reaction mixture with 1 ml of chloroform for 90 seconds, the organic and aqueous phases were separated by centrifugation at 1600×gav for 5 minutes. A 0.5 ml aliquot of the organic phase was then assayed. The 0.5 ml aliquot of the organic phase was added to 9.5 ml of liquid scintillation cocktail (Beckman Instruments, Columbia, Md.) and radioactivity was measured by standard procedures with a liquid scintillation counter.
(§3) One unit of apparent PMT activity is defined as one nanomole of product formed per 30 min., at 30° C.
(§4) Negative controls were included with all PMT assays. Negative controls consisted of reaction mixtures minus enzyme, or reaction stopped with NaOH at time zero.
Substrate specificity tests were carried out with the highly purified tobacco protein of the present invention. 1,3-Diaminopropane and 1,5-diaminopentane (chemical analogs of putrescine) phosphatidylethanolamine (a methyl group acceptor), and N-methylputrescine(the normal product of PMT), were compared with putrescine (1,4-diaminobutane) for ability to serve as an apparent substrate for PMT.

[2] = tested on: putrescine N-methyltransferase ("PMT") / subject tobacco protein; assay: Apparent Km determination in the apparent PMT activity assay; format: biochemical, Nicotiana tabacum L. var. Burley 21; settings: partially purified tobacco protein; S-adenosylmethionine in excess
Experimental: as §1, §2, §3, §4

| Compound | radioactive product formed when substituted for putrescine [1] | further results |
| --- | --- | --- |
| NCCCN [1,3-diaminopropane, 1,3-Diaminopropane] | no detectable amount of radioactive product was formed |  |
| NCCCCCN [1,5-diaminopentane] | no detectable amount of radioactive product was formed |  |
| CNCCCCN [N-methylputrescine] |  | radioactive product formation relative to that observed with putrescine ([1]; substituted for putrescine in the PMT assay): less than 6% |
| NCCCCN [putrescine, 1,4-diaminobutane] |  | Km [2]: ~400 µM |
| phosphatidylethanolamine | no detectable amount of radioactive product was formed |  |
